Patent US7259186B2, “Salts of fenofibric acid and pharmaceutical formulations thereof” (Abbott Laboratories, priority 2002, dated 2007)
Where a name gives a salt, the structure may show the parent alone.

Assay: Solid state photostability (ICH light exposure, HPLC recovery)
Assay type: physicochemical
Conditions: light 300–800 nm under ICH Guideline conditions; lack of degradation = recovery of 95% or greater
Excerpt: The terms “photostability” and “photostable” are used interchangeably herein and refer to a lack of degradation induced by exposure to light from 300–800 nm under the conditions described in the “Guideline for the Photostability Testing of New Drug Substances and Products” (International Conference on Harmonization. Federal Register 1997; […]:27115–22, which is herein incorporated by reference) (hereinafter referred to as the “Guidelines”). As used herein, the term of “lack of degradation” means a recovery of 95% or greater on average, preferably a recovery of 97% or greater on average and most preferably, a recovery of 99% or greater on average of the novel salts of the present invention after exposure to light from 300–800 nm under the conditions described in the Guidelines described above and pursuant to the assay described in Example 28.
About 1–4 mg of each of fenofibric acid form I, fenofibric acid form II, choline, diethanolamine, tromethamine, sodium, calcium, ethanolamine, meglumine, L-lysine, and piperazine was weighed into separate 4 mL clear glass vials. […]
The vials were sealed with PTFE lined caps, and divided into 2 groups with at least three replicates in each group. […] At the end of the light exposure, all samples and controls were removed and analyzed by HPLC using the conditions shown below in Table 6. […]

SMILES | photostability (in words)
CC(C)(Oc1ccc(C(=O)c2ccc(Cl)cc2)cc1)C(=O)O [L-Lysine salt, reference compound] | not photostable
CC(C)(Oc1ccc(C(=O)c2ccc(Cl)cc2)cc1)C(=O)O [Meglumine salt, reference compound] | not photostable
